Source: patent publication US11723890B2, “Methods of treatment using an mTORC1 modulator” (Navitor Pharmaceuticals, Inc., priority 2019, dated 2023)

System: subjects with TRD
Assay: Example 1 Part B: preliminary efficacy on depression rating scales in subjects with TRD
Assay type: in vivo, human
Details: for Effect size, HAM-D6 for ≤55 years old / Effect size, HAM-D6 for ≥36 MADRS at baseline / Effect size, CGI-S for ≤55 years old / Effect size, MADRS Total for ≤55 years old / Effect size, CGI-S for ≥36 MADRS at baseline / Effect size, MADRS Total for ≥36 MADRS at baseline / Effect size, IDS-SR Psychomotor Domain / Effect size, MADRS-06 (core) / Effect size, MADRS-08 (core-plus): post-hoc; for Effect size, HAM-D6 for ≤55 years old / Effect size, CGI-S for ≤55 years old / Effect size, MADRS Total for ≤55 years old: N = 14; for Effect size, HAM-D6 for ≥36 MADRS at baseline / Effect size, CGI-S for ≥36 MADRS at baseline / Effect size, MADRS Total for ≥36 MADRS at baseline: N = 16
Procedure: Primary Efficacy Endpoint: The primary efficacy endpoint was the difference between the compound A group and the placebo group in change from baseline in the Montgomery Asberg Depression Rating Scale (MADRS) total score at Day 2 (24 hours post dose).
Secondary Efficacy Endpoints: Secondary preliminary efficacy endpoints were the difference between the compound A group and the placebo group in: • change from baseline in the MADRS total score at each time point • change from baseline in the Hamilton Depression Rating Scale-6 Item (HAM-D6) total score at each time point • change from baseline in the IDS-SR30 total score and domain scores at each time point • change from baseline in the Clinical Global Impression-Severity (CGI-S) score at each time point
Preliminary Efficacy Evaluations: Other psychiatric evaluations were performed to assess preliminary efficacy in Part B only. These evaluations included the Montgomery-Asberg Depression Rating Scale (MADRS), the Hamilton Depression Rating Scale-6 Item (HAM-D6), the Clinical Global Impression-Severity (CGI-S), and the Inventory of Depressive Symptomatology (30-item, self-rated version) (IDS-SRN). Montgomery-Asberg Depression Rating Scale (MADRS).
The MADRS is a clinician-administered scale used to assess the range of symptoms that are most frequently observed in patients with major depression. The scale includes 10 items, each scored on a scale of 0 to 6. The MADRS was administered centrally by a third-party independent rater blinded to protocol, visit, and treatment.
Hamilton Depression Rating Scale-6 Item (HAM-D6): The HAM-D6 is a clinician-administered scale used to assess key domains of depressive symptomatology. The HAM-D6 was derived from the original 17-item version of the scale (HAM-D17). Five of the six items are scored on a scale of 0 to 4, and one item is scored on a scale of 0 to 2.
Clinical Global Impression-Severity (CGI-S): The CGI-S is a 7-point clinician-administered scale used to assess the severity of the patient's illness at the time of assessment relative to the clinician's past experience with patients who have the same diagnosis.
Inventory of Depressive Symptomatology (30-Item, Self-Rated Version) (IDS-SR30): The IDS-SR30 is a self-rated scale used to assess the severity of depressive symptomatology. The scale includes 30 items, each scored on a scale of 0 to 3.
The MADRS total score was centrally administered. The HAM-D6 was site-administered. The CGI-S was site physician administered. The IDS-SR was patient self-administered. MADRS-6 and MADRS-8 scores were then extrapolated post hoc from the MADRS total scores.
MADRS-10 items include apparent sadness, reported sadness, inner tension, reduced sleep, reduced appetite, concentration difficulties, lassitude, inability to feel, pessimistic thoughts, and suicidal thoughts. MADRS-6 items include apparent sadness, reported sadness, inner tension, lassitude, inability to feel, and pessimistic thoughts. MADRS-8 items include apparent sadness, reported sadness, inner tension, concentration difficulties, lassitude, inability to feel, pessimistic thoughts, and suicidal thoughts. HAM-D6 items include depressed mood, low self-esteem/guilt, work and interests, psychomotor retardation, psychic anxiety, and somatic symptoms.
When determining clinically significant antidepressant effect, it is recommended to use standardized effect size statistics. The correct use of depression rating scales in clinical trials of antidepressants is to indicate the effect size of the specific items of depression and to accept an effect size of 0.40 or higher as being the clinically significant effect. An effect size of ≥0.2 indicates early improvement. An effect size of ≥0.4 indicates a clinical response.

[1] = single 2400 mg vs placebo, 12 h
[2] = single 2400 mg vs placebo, 24 h
[3] = single 2400 mg vs placebo, 24 h, N = 31
[4] = single 2400 mg vs placebo, 24 h, prespecified, N = 31
[5] = single 2400 mg vs placebo, 36 h
[6] = single 2400 mg vs placebo, 48 h
[7] = single 2400 mg vs placebo, 48 h, N = 31
[8] = single 2400 mg vs placebo, 48 h, prespecified, N = 31
[9] = single 2400 mg vs placebo, 72 h
[10] = single 2400 mg vs placebo, 72 h, N = 31
[11] = single 2400 mg vs placebo, 72 h, prespecified, N = 31
[12] = single 2400 mg, 24 hours post dose

Structure (SMILES): CC(C)(C[C@H](N)C(=O)O)C(F)F [Compound A, (S)-2-amino-5,5-difluoro-4,4-dimethylpentanoic acid]
- duration of numerical benefits on HAM-D6 (single 2400 mg): 24 to 72 h
- onset of efficacy on HAM-D6 (single 2400 mg): as early as two hours post-dose
- MADRS items with greater impact than placebo (single 2400 mg vs placebo): inner tension, concentration, pessimistic thoughts, and inability to feel
- Effect size, HAM-D6 for ≤55 years old (single 2400 mg vs placebo, 2 h): 0.8
- Effect size, HAM-D6 for ≥36 MADRS at baseline (single 2400 mg vs placebo, 2 h): 1.0
- Effect size, HAM-D6 (single 2400 mg vs placebo, 2 h, prespecified, N = 31): 0.6
- Effect size, HAM-D6 for ≤55 years old (single 2400 mg vs placebo, 4 h): 1.0
- Effect size, HAM-D6 for ≥36 MADRS at baseline (single 2400 mg vs placebo, 4 h): 1.1
- Effect size, HAM-D6 (single 2400 mg vs placebo, 4 h, prespecified, N = 31): 0.8
- Effect size, HAM-D6 for ≤55 years old (single 2400 mg vs placebo, 8 h): 1.1
- Effect size, HAM-D6 for ≥36 MADRS at baseline (single 2400 mg vs placebo, 8 h): 0.8
- Effect size, HAM-D6 (single 2400 mg vs placebo, 8 h, prespecified, N = 31): 0.7
- Effect size, HAM-D6 for ≤55 years old [1]: 1.3
- Effect size, HAM-D6 for ≥36 MADRS at baseline [1]: 0.9
- Effect size, HAM-D6 (single 2400 mg vs placebo, 12 h, prespecified, N = 31): 0.8
- Effect size, CGI-S for ≤55 years old [2]: 0.2
- Effect size, HAM-D6 for ≤55 years old [2]: 0.9
- Effect size, MADRS Total for ≤55 years old [2]: 0.6
- Effect size, CGI-S for ≥36 MADRS at baseline [2]: 0.2
- Effect size, HAM-D6 for ≥36 MADRS at baseline [2]: 0.8
- Effect size, MADRS Total for ≥36 MADRS at baseline [2]: 0.4
- Effect size, IDS-SR Psychomotor Domain [3]: 0.8
- Effect size, MADRS-06 (core) [3]: 0.3
- Effect size, MADRS-08 (core-plus) [3]: 0.3
- Effect size, CGI-S Change from baseline [4]: -0.1
- Effect size, HAM-D6 [4]: 0.5
- Effect size, IDS-SR 30 Total Score [4]: 0.3
- Effect size, MADRS Total Score (prelim. primary @24 h) [4]: 0.1
- Effect size, HAM-D6 for ≤55 years old [5]: 1.3
- Effect size, HAM-D6 for ≥36 MADRS at baseline [5]: 0.9
- Effect size, HAM-D6 (single 2400 mg vs placebo, 36 h, prespecified, N = 31): 0.5
- Effect size, CGI-S for ≤55 years old [6]: 0.4
- Effect size, HAM-D6 for ≤55 years old [6]: 1.2
- Effect size, MADRS Total for ≤55 years old [6]: 0.6
- Effect size, CGI-S for ≥36 MADRS at baseline [6]: 0.7
- Effect size, HAM-D6 for ≥36 MADRS at baseline [6]: 0.9
- Effect size, MADRS Total for ≥36 MADRS at baseline [6]: 0.3
- Effect size, IDS-SR Psychomotor Domain [7]: 0.3
- Effect size, MADRS-06 (core) [7]: 0.3
- Effect size, MADRS-08 (core-plus) [7]: 0.3
- Effect size, CGI-S Change from baseline [8]: 0.1
- Effect size, HAM-D6 [8]: 0.5
- Effect size, IDS-SR 30 Total Score [8]: 0.3
- Effect size, MADRS Total Score [8]: 0.2
- Effect size, CGI-S for ≤55 years old [9]: 0.2
- Effect size, HAM-D6 for ≤55 years old [9]: 1.1
- Effect size, MADRS Total for ≤55 years old [9]: 0.3
- Effect size, CGI-S for ≥36 MADRS at baseline [9]: 1.0
- Effect size, HAM-D6 for ≥36 MADRS at baseline [9]: 0.8
- Effect size, MADRS Total for ≥36 MADRS at baseline [9]: 0.3
- Effect size, IDS-SR Psychomotor Domain [10]: 0.6
- Effect size, MADRS-06 (core) [10]: 0.1
- Effect size, MADRS-08 (core-plus) [10]: 0.1
- Effect size, CGI-S Change from baseline [11]: 0.2
- Effect size, HAM-D6 [11]: 0.4
- Effect size, IDS-SR 30 Total Score [11]: 0.3
- Effect size, MADRS Total Score [11]: -0.1
- MADRS concentration scores [12]: marked improvement
- MADRS item Apparent Sadness, % CFB [12]: −12.3%
- MADRS item Apparent Sadness, CFB [12]: −0.56
- MADRS item Apparent Sadness, score Day 1 [12]: 4.00
- MADRS item Concentration, % CFB [12]: −23.1%
- MADRS item Concentration, CFB [12]: −0.94
- MADRS item Concentration, score Day 1 [12]: 3.13
- MADRS item Inability to Feel, % CFB [12]: −12.9%
- MADRS item Inability to Feel, CFB [12]: −0.56
- MADRS item Inability to Feel, score Day 1 [12]: 3.81
- MADRS item Inner Tension, % CFB [12]: −40.5%
- MADRS item Inner Tension, CFB [12]: −1.06
- MADRS item Inner Tension, score Day 1 [12]: 1.56
- MADRS item Lassitude, % CFB [12]: −1.8%
- MADRS item Lassitude, CFB [12]: −0.06
- MADRS item Lassitude, score Day 1 [12]: 3.44
- MADRS item Pessimistic Thoughts, % CFB [12]: −23.3%
- MADRS item Pessimistic Thoughts, CFB [12]: −0.63
- MADRS item Pessimistic Thoughts, score Day 1 [12]: 2.06
- MADRS item Reduced Appetite, % CFB [12]: −14.3%
- MADRS item Reduced Appetite, CFB [12]: −0.44
- MADRS item Reduced Appetite, score Day 1 [12]: 2.63
- MADRS item Reduced Sleep, % CFB [12]: −7.4%
- MADRS item Reduced Sleep, CFB [12]: −0.31
- MADRS item Reduced Sleep, score Day 1 [12]: 3.94
- MADRS item Reported Sadness, % CFB [12]: −19.2%
- MADRS item Reported Sadness, CFB [12]: −0.94
- MADRS item Reported Sadness, score Day 1 [12]: 3.94
- MADRS item Suicidal Thoughts, % CFB [12]: −9.1%
- MADRS item Suicidal Thoughts, CFB [12]: −0.06
- MADRS item Suicidal Thoughts, score Day 1 [12]: 0.63
- MADRS-10 TOTAL SCORE, CFB [12]: −5.5
- Change in HAM-D6 Total Score (single 2400 mg, at 2 h): −2.0
- Change in HAM-D6 Total Score, Difference Compound A vs Placebo (single 2400 mg, at 2 h): −1.3
- Change in HAM-D6 Total Score (single 2400 mg, at 4 h): −2.6
- Change in HAM-D6 Total Score, Difference Compound A vs Placebo (single 2400 mg, at 4 h): −1.8
- Change in HAM-D6 Total Score (single 2400 mg, at 8 h): −2.9
- Change in HAM-D6 Total Score, Difference Compound A vs Placebo (single 2400 mg, at 8 h): −1.7
- Change in HAM-D6 Total Score (single 2400 mg, at 12 h): −3.9
- Change in HAM-D6 Total Score, Difference Compound A vs Placebo (single 2400 mg, at 12 h): −2.7
- Change in HAM-D6 Total Score (single 2400 mg, at 24 h): −3.5
- Change in HAM-D6 Total Score, Difference Compound A vs Placebo (single 2400 mg, at 24 h): −1.5
- Change in HAM-D6 Total Score (single 2400 mg, at 36 h): −4.3
- Change in HAM-D6 Total Score, Difference Compound A vs Placebo (single 2400 mg, at 36 h): −1.8
- Change in HAM-D6 Total Score (single 2400 mg, at 48 h): −3.7
- Change in HAM-D6 Total Score, Difference Compound A vs Placebo (single 2400 mg, at 48 h): −1.3
- Change in HAM-D6 Total Score (single 2400 mg, at 72 h): −4.1
- Change in HAM-D6 Total Score, Difference Compound A vs Placebo (single 2400 mg, at 72 h): −1.3
- HAM-D6 scores (single dose 2400 mg, FIG. 2): rapid and sustained efficacy
